In ChEMBL document CHEMBL1926508, “Pharmacophore-based discovery of FXR agonists. Part I: Model development and experimental validation” (Bioorg Med Chem, 2011):
Activity calls are given as the source filed them. The calls are words filed in the database; no cut-off is given here.

Legend:
[1] = molecular target: T1, Bile acid receptor (Mus musculus) (UniProt Q60641); experiment: Agonist activity at mouse FXR expressed in HEK293 cells co-expressing mouse RXRalpha and ECRE-luc up to 100 uM by luciferase reporter gene assay; format: functional, cell-based
T1 sequence (whole entry): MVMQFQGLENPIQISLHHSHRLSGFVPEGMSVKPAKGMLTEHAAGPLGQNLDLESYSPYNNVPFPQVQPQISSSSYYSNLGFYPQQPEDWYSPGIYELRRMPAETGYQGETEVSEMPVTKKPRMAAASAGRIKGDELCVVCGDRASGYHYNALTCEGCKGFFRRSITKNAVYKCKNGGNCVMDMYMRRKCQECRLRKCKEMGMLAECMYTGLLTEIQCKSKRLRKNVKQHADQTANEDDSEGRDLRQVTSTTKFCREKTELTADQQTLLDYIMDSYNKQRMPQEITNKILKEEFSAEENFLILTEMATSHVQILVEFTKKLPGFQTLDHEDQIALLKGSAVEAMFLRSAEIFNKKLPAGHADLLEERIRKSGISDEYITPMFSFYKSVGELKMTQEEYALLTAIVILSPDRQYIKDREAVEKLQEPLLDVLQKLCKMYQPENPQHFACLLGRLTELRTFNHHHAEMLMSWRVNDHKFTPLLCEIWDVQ

[2] = molecular target: T1, Bile acid receptor (Mus musculus); experiment: Agonist activity at mouse FXR expressed in HEK293 cells co-expressing mouse RXRalpha and ECRE-luc by luciferase reporter gene assay; format: functional, cell-based

Structure (SMILES)	Activity [1]	Activity [2]
Cc1cc(C(=O)CCCCCCCCC(=O)O)ccc1O	inactive	–
O=C(O)c1ccc(C(=O)c2ccc(C(=O)c3ccc(C(=O)O)cc3)cc2)cc1	inactive	–
C[C@]12CC[C@H]3[C@@H](CCC4CC(=O)/C(=C\C(F)(F)F)C[C@@]43C)[C@@H]1CC[C@@H]2C(=O)O (stereo partly drawn)	inactive	–

Other lines, results leading:

Activity [1]	Activity [2]	Structure (SMILES)
inactive	–	C1=C(c2ccc(OCc3ccccc3)c(OCc3ccccc3)c2)CC2CCCCC2C1 (stereo not drawn)
inactive	–	O=C(O)c1cnc2cc(OCCOc3ccc(F)cc3)ccc2c1O
–	Dose-dependent effect	COc1ccc(N2CCN(C[C@H](O)COc3cc4c(c5c3CCCC5)CCCC4)CC2)cc1
–	Dose-dependent effect	CCCCc1ccc([C@@H](CC(=O)c2ccccc2)c2ccccc2)cc1
inactive	–	COc1ccc(/C(C)=N/NC(=O)CC(=O)N(C(=O)c2ccccc2)c2ccc(C)cc2)cc1
